Here are results for 87 molecules from a melting point compilation (Tetko et al.; mined from patent text by program, amines drawn as free bases though some values may be those of a salt).

Bounds are passed on as bounds.

`COc1cc2ncnc(N3CCC(C(C)CN4CCC(C)NS4(=O)=O)CC3)c2cc1OC` (configuration not stated): the melting point (as a rule, the temperature of the solid-liquid transition) lay in the range of 172 to 175 °C.

For `CC(C)(C)OC(=O)N1CCC[C@@H](OC(=O)Nc2ccc(Cl)cc2)C1`, the melting point was in the range of 160 to 161 °C.

Molecule `CC(C)(C)c1ccc(-c2nc(COc3cccc4cc(NS(=O)(=O)C(F)(F)F)ccc34)cs2)cc1` came in with a melting point of 174 to 175 °C.

Regarding `O=C1NC(=O)C(c2ccc(Oc3ccc(Cl)cc3)cc2)(N2CCN(CC(O)CO)CC2)C(=O)N1` (configuration not stated), the melting point is 257 to 258 °C.

As for `Cc1ncc(CN2CCN(c3ccccc3C)CC2)c(N)n1`, the melting point was in the range of 189 to 190 °C.

Take `CC(=NOCCOc1ccc(CC2SC(=O)NC2=O)cc1)c1cccc(O)c1` (configuration not stated): the melting point lay in the range of 133 to 135 °C.

Molecule `CC(C)(N)c1ccc(-c2nc(Nc3ccc(-n4cncn4)cc3)ncc2C#N)cc1` displayed a melting point of 208 to 209 °C.

In turn, `Cn1ccc(-c2[nH]nc3c2C(=O)c2c(NC(=O)NN4CCOCC4)cccc2-3)c1` registered a melting point of 301 °C.

As to `Cc1[nH]c(=O)c(C#N)cc1-c1csc(N)n1`, the melting point was in the range of 294 to 296 °C.

The molecule `COc1ccc(Nc2ccnc(NCCO)c2)cc1` registered a melting point of 164 to 165 °C.

In the case of `Cn1c(=O)c(-c2ccccc2Cl)cc2cnc(N[C@H]3CC[C@H](N)CC3)nc21`, the melting point lay in the range of 190 to 191 °C.

The molecule `O=C(N1CCN(c2ccncc2Cl)CC1)N1CCN(S(=O)(=O)c2ccc(F)cc2)CC1` returned a melting point of 143 to 144 °C.

The molecule `COc1ccc(COc2ccc(COc3ccc4c(c3)CCC(CN(C)C)C4)cc2)cc1` (configuration not stated) came in with a melting point of 106 to 111 °C.

The molecule `CC(Oc1cccc(Cl)c1)c1nnc(N)s1` (configuration not stated) yielded a melting point of 136 to 138 °C.

The molecule `COc1ccc(/C=C(\C#N)c2ccc(Cl)cc2Cl)cc1OC1CCCC1` gave a melting point of 105 to 107 °C.

On to `O=C(O)CCNC(=O)[C@H](Cc1ccc(-c2ccccc2)cc1)NCP(=O)(O)Oc1ccccc1`, for which the melting point was 222 to 223 °C.

Take `CC[C@@H](C(=O)O)n1ccc2ccc(Cl)cc2c1=O`: the melting point came to 160 °C.

In turn, `CS(=O)(=O)NCC1CC2C=CC1C2` (configuration not stated) yielded a melting point of 60 to 62 °C.

Turning to `O=C(NCc1cccnc1)c1ccc2n1Cc1ccccc1N(C(=O)c1ccccc1)C2`, the melting point was found to be 197 °C.

Take `O=CC(=Cc1ccccc1OCc1ccc(Cl)cc1)C(C=O)=Cc1ccccc1OCc1ccc(Cl)cc1`: the melting point lay in the range of 186 to 187 °C.

`CCc1cnc(C2=NC(C)(C(C)C)C(=O)N2)c(C(=O)NCCCC(=O)OC)c1` (configuration not stated) came in with a melting point of 132 to 134 °C.

In the case of `CC(C)(C)c1cc(Cc2nc(S)n[nH]2)cc(C(C)(C)C)c1O`, the melting point was 184 to 185 °C.

In the case of `CCOC(=O)C(=CC(=CN(C)C)C(=O)C(=O)OC)Sc1ccccc1`, the melting point was 118 °C.

`CN(C)CCC(=O)Nc1ccc2c(=O)c3ccc(NC(=O)CCN(C)C)cc3[nH]c2c1` registered a melting point of over 320 °C.

Take `COc1cc(Cl)nc(Oc2cccc(Oc3nc(OC)cc(OC)n3)c2C(=O)O)n1`: the melting point is 150 to 152 °C.

Consider `CCOC(=O)C(=Cc1ccc(NC)cc1[N+](=O)[O-])C(=O)OCC`, for which the melting point is 113 to 114 °C.

Molecule `CCC1(c2ccccc2)Cc2cc(OC)c(Cl)c(Cl)c2C1=O` (configuration not stated) gave a melting point of 139 to 141 °C.

`O=C(CCl)c1ccc(-c2ccc(SC(F)F)cc2)cc1` came in with a melting point of 102 to 104 °C.

Molecule `O=c1c2cc(F)ccc2nc(NCc2ccccc2F)n1-c1ccccc1Cl` gave a melting point of 163 to 165 °C.

As for `Cc1c(O)ccc2c(O)c(C(=O)Nc3cccc(F)c3)c(=O)oc12`, the melting point lay within 287 to 289 °C.

For `COc1ccc(NS(=O)(=O)CC(=O)O)cc1[N+](=O)[O-]`, the melting point lay within 154 to 156 °C.

Molecule `NC(=O)c1ccc(F)c2c1CC(N(CCCc1c[nH]c3ccc(F)cc13)CC1CC1)CO2` (configuration not stated) registered a melting point of 121 °C.

Molecule `O=C(CCC(=O)N1CCC(c2ccc(Cl)cc2)CC1)c1ccc2c(c1)CCN(CC1CCCO1)CC2` (configuration not stated) registered a melting point of 123 to 125 °C.

`CC(O)c1cc2ccccc2cn1` (configuration not stated) yielded a melting point of 104 to 106 °C.

With `CC(=O)Oc1cnccc1CCCOc1cccnc1Cc1cccc(Br)c1`, the melting point was 122 to 128 °C.

Take `CCCn1c2cc(OC)ccc2c2oc(C(=O)Cl)cc21`: the melting point lay in the range of 195 to 196 °C.

`O=C(NCC1Cc2cc(Cl)c3c(c2O1)CCC3)OCc1ccccc1` (configuration not stated) yielded a melting point of 118 to 121 °C.

Regarding `NC(=O)ON(Cc1ccccc1)Cc1ccccc1`, the melting point was 127 to 129 °C.

In turn, `COC(=O)N(CC(=O)O)C(=O)c1c(Br)ccc2c(C(F)(F)F)c(OC)ccc12` gave a melting point of 164 to 166 °C.

Regarding `CC(O)COC(c1c(C(C)C)nn2ccccc12)C(C)C` (configuration not stated), the melting point was determined as 112 °C.

`CN1CCC(ON2C(=O)c3ccccc3C2=O)CC1` had a melting point of 90 °C.

In turn, `O=C1c2cccc(OCc3ccccc3)c2-c2nn(CCNCCO)c3ccc(Cl)c1c23` displayed a melting point of 165 to 167 °C.

The molecule `O=c1[nH]c2ccc(C3CCC(NCCS(=O)c4ccccc4)CC3)cc2o1` (configuration not stated) registered a melting point of 107 to 110 °C.

Molecule `Cc1[nH]c2cccc3c2c1CC1C3=CC(C(=O)NN)CN1C` (configuration not stated) registered a melting point of 235 to 240 °C.

Molecule `CCOC(=O)c1c(C(F)(F)F)nc(C(F)(F)F)c(C)c1OCC` yielded a melting point of 72.5 to 74 °C.

With `CC(C)OC(=O)c1cc(-n2c(=O)c3c(n(C)c2=O)CCC3)c(F)cc1Cl`, the melting point was 111 to 113 °C.

For `CCOC(=O)/C=C(/c1ccc(OC)cc1)c1cc(Cl)ccc1Cl`, the melting point fell in the range of 98 to 100 °C.

As to `COC(=O)c1cc(OC)c(OCc2ccccc2)cc1[N+](=O)[O-]`, the melting point lay in the range of 104 to 105 °C.

Take `Cc1sc2c(c1C(=O)c1ccc(N(C)C)cc1)CCC2C(=O)O` (configuration not stated): the melting point was 171 to 173 °C.

The molecule `Cc1nc2ccsc2c(=O)n1-c1ccccc1Cl` showed a melting point of 118 to 121 °C.

The molecule `N#Cc1ccc(N2CCC(C(N)=O)CC2)c2ccccc12` yielded a melting point of 249 to 250 °C.

The molecule `CC(C)C(=O)c1c(C(C)C)nn2ccccc12` came in with a melting point of 53 to 55 °C.

Molecule `CC(NC(=O)c1ccc(NC(=O)c2ccccc2SSc2ccccc2C(=O)Nc2ccc(C(=O)NC(C)C(=O)O)cc2)cc1)C(=O)O` (configuration not stated) showed a melting point of 265 °C.

As to `CNC(=N)Cc1nc(C(C)C)c(Sc2cc(Cl)cc(Cl)c2)n1C`, the melting point lay within 176 to 178 °C.

The molecule `N#Cc1ccc(Oc2ccc(CBr)cc2)cc1C#N` had a melting point of 101 to 102 °C.

On to `COc1ccc(CCN(C)CCOc2ccc(NC(=O)c3cccc4c(=O)c5ccccc5n(C)c34)cc2)cc1OC`, for which the melting point stood at 139 °C.

`COC(=O)c1nc(CI)n(-c2ccc(Cl)cc2C(=O)c2ccccc2Cl)n1` yielded a melting point of 125 to 128 °C.

With `FC(F)(F)c1cc(CO[C@H]2CCCN(Cc3cccnn3)[C@H]2c2ccccc2)cc(C(F)(F)F)c1`, the melting point was in the range of 111 to 113 °C.

`CO/N=C(\C(=O)N[C@@H]1C(=O)N[C@@H]1COC(=O)/C(=N\OC)c1csc(NC(=O)CCl)n1)c1csc(NC(=O)CCl)n1` (relative stereo) had a melting point of 157 to 159 °C.

On to `C#CC1(O)c2ccccc2COc2ccccc21` (configuration not stated), for which the melting point was in the range of 93 to 94 °C.

Take `CC(C)(C)OC(=O)NC1(c2ccccc2)CCN(CCC2(c3ccc(F)c(F)c3)CN(C(=O)c3ccccc3)CCO2)CC1` (configuration not stated): the melting point was determined as 107 °C.

The molecule `NC(=O)c1sc(-n2cnc3cnc(Cl)cc32)cc1OCc1ccccc1C(F)(F)F` came in with a melting point of 248 to 249 °C.

Molecule `Cc1nc(NC2CC2)ccc1N1CCCn2c1nc1c(Cl)ccc(C(OC(F)F)C(F)(F)F)c12` (configuration not stated) came in with a melting point of 168 to 170 °C.

Consider `CCOC(=O)C1CCC(=O)NC1=O` (configuration not stated), for which the melting point lay within 69 to 74 °C.

The molecule `Cn1c(CC(=O)O)cc2ccccc21` returned a melting point of 146 to 148 °C.

For the molecule `CC[C@H]1COC(=O)N1c1nc(-c2ccc(C#N)cc2)c(F)s1`, the melting point was 157 to 159 °C.

Turning to `Cc1nc(C)n2c1CN=C(c1ccccc1F)c1cc(Cl)ccc1-2`, the melting point lay within 178 to 180 °C.

Turning to `CC12CCC3c4ccc(OCc5ccccc5)c(N)c4CCC3C1CCC2=O` (configuration not stated), the melting point is 219 to 221 °C.

Regarding `Cc1cccc(C(CNc2ncnc3c2ncn3C2OC(CO)C(O)C2O)c2ccccc2)c1` (configuration not stated), the melting point is 92 to 105 °C.

The molecule `NNS(=O)(=O)c1cccc2cccnc12` returned a melting point of 135 to 137 °C.

For the molecule `CC(C)(C)n1nc(-c2ccccc2)c(C(N)=O)c1N`, the melting point lay within 177 to 178 °C.

In the case of `CCn1c(N(C)C)nc2cc(C(F)(F)F)c(Cl)c(N)c21`, the melting point was 99 to 100 °C.

With `O=C(NCc1ccc(Cl)cc1)c1cnc2c(I)cc(CO)cc2c1O`, the melting point lay within 283 to 286 °C.

`CCCCCCCN(CCCCCSc1nc2ccc([N+](=O)[O-])cc2[nH]1)C(=O)Nc1ccc(F)cc1F` had a melting point of 120 to 122 °C.

In turn, `COc1cc(Br)c(OC(=O)c2ccc(OC)c(C(F)(F)F)c2)c(NC(=O)c2ccc(OC)c(C(F)(F)F)c2)c1` displayed a melting point of 205 to 208 °C.

Regarding `CCOC(=O)c1c(C(F)F)nc(C(F)(F)F)c(C(=O)OCC)c1-c1ccncc1`, the melting point was 43 to 45 °C.

`N#CCSc1nnc2ccccn12` returned a melting point of 121 to 123 °C.

As for `CNc1nc(C=CC(=O)OC)c(-c2ccncc2)s1`, the melting point is 166 to 167 °C.

`N#Cc1cc(NC(=O)c2cc3ccccc3s2)ccc1N1CCC(N2CCCCC2)CC1` had a melting point of 275 °C.

Turning to `CCCc1c(OCc2ccc(CSC#N)cc2)ccc(C(C)=O)c1O`, the melting point lay in the range of 110 to 111 °C.

`FC(F)(F)c1ccc(N2CCNCC2)nc1`: the melting point lay in the range of 45 to 47 °C.

In turn, `O=C(O)c1cccc(S(=O)(=O)Oc2ccc(-c3ccc(-c4c(Cc5ccccc5)oc5ccccc45)cc3)cc2)c1` had a melting point of 169 to 171 °C.

Molecule `Cc1nc(N)nc(Cl)c1C` displayed a melting point of 212 to 220 °C.

`CCOC(=O)C1=CC(=NO)CC(c2ccc(Cl)cc2F)N1` (configuration not stated): the melting point was in the range of 124 to 126 °C.

Regarding `Ic1ccc(-c2ccc(I)s2)s1`, the melting point turned out to be 164 °C.

For the molecule `O=C(O)/C=C/c1ccc(OCC2CCCO2)cc1Oc1ncc(C(F)(F)F)cc1Cl` (configuration not stated), the melting point lay in the range of 106 to 109 °C.

`CCN1CC(=O)Nc2cc(Nc3ncc(Cl)c(Nc4ccccc4S(=O)(=O)N(C)C)n3)c(OC)cc2C1` returned a melting point of 175 °C.
